According to patent US6118050A, “Hydroxyphenylpyruvate dioxygenase gene from arabidopsis and method of screening for inhibitors thereof” (American Cyanamid Company, priority 1997, dated 2000):

Assays:
[1] = test system: Lemna; conditions: cited from earlier work
[2] = test system: albino psdl mutant; conditions: transferred to MS2 medium supplemented with OHPP or HGA; cited from earlier work
[3] = biological target: partially purified enzyme extracted from maize (HPPD); conditions: partially purified maize enzyme (Schulz et al., 1993); read-out: calculated IC50; cited from earlier work
[4] = biological target: T1, Arabidopsis HPPD (Arabidopsis thaliana, UniProt P93836); assay: HPPD enzymatic activity by capture of released 14CO2 from 14C-hydroxyphenylpyruvate, extract of E. coli transformed with Arabidopsis HPPD gene; assay type: biochemical
T1 construct: made in house; host or cells: E. coli (pKK233-2, trc promoter); desalted lysate supernatant
T1 sequence (P93836 1-445): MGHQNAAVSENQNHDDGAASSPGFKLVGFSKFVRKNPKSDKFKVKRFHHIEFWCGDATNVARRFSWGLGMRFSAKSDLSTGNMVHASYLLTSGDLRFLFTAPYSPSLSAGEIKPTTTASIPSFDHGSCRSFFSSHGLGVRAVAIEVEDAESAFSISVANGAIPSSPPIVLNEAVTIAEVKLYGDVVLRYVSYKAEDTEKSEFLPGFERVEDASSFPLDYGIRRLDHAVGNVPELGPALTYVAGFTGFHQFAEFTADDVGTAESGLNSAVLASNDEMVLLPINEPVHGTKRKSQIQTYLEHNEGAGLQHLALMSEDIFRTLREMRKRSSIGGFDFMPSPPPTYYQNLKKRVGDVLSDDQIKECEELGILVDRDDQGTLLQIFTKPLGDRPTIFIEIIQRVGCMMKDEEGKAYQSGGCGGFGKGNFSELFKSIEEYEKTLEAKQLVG
Method: E. coli transformants were treated with 0.1 mg/ml lysozyme in 50 mM potassium phosphate buffer (pH 7.3) at 30° C. for 10 min. Cells were sonicated (3 times, 5 sec each, using a VibraCell sonicator, Sonics and Material, Inc., Danbury, Conn.) and the extract was subjected to centrifugation. The supernatant was desalted on an Econo-Pac 10DG column (Bio-Rad, Richmond, Calif.) that had been equilibrated with 50 mM phosphate buffer (pH 7.3). The desalted HPPD-containing extract was used for the HPPD assay.
HPPD enzymatic activity was determined by the capture of released ^14 CO2 from ^14 C-hydroxyphenylpyruvate (Schulz et al., FEBS Letts. 318:162, 1993; Secor, Plant Physiol. 106:1429, 1994). Reactions were performed in 20 ml scintillation vials, each capped with a serum stopper through which a polypropylene well containing 50 μl of benzethonium hydroxide was suspended. Each 450 μl reaction mixture contained: 50 mM potassium phosphate buffer (pH 7.3); 50 μl of a freshly prepared 1:1 (v/v) mixture of 150 mM reduced glutathione and 3 mM dichlorophenolindophenol; 2500 units of catalase; and bacterial extract (source of HPPD). Enzyme inhibitors were added where indicated. ^14 C-hydroxyphenylpyruvate (50 μl of a 2 mM solution), prepared according to the method of Secor (1994, supra), was added to initiate the reaction, which proceeded at 30° C. for 30 min. The reaction was stopped by adding 100 μl 4 N sulfuric acid and the mixture was incubated for a further 30 min. The radioactivity trapped in benzethonium hydroxide was counted in a scintillation counter.

[5] = test system: susceptible plants; conditions: cited from earlier work
[6] = biological target: partially purified HPPD from barnyardgrass (Echinochloa crus-galli L.); conditions: partially purified HPPD from barnyardgrass (Secor, 1994); cited from earlier work
[7] = test system: E. coli transformed with the Arabidopsis HPPD gene; assay: Brown pigment formation in E. coli transformed with the Arabidopsis HPPD gene (absorption at 450 nm); assay type: cell-based; conditions: medium supplemented with tyrosine (FIG. 2)
Source text: B. Production of Brown Pigment and Homogentisic Acid in E. coli
No similar brown pigmentation was associated with untransformed E. coli or with E. coli transformed with the control vector.

Question: Which results are given for `O=C(O)Cc1cc(O)ccc1O` [homogentisic acid]?
Answer: reversal of the herbicidal effect of sulcotrione ([1]; Lemna treated with sulcotrione): herbicidal effect could be abolished; greening of albino psdl mutant [2]: greened

Question: With `CS(=O)(=O)c1ccc(C(=O)C2C(=O)CCCC2=O)c(Cl)c1` [sulcotrione, 2-(2-chloro-4-methanesulfonylbenzoyl)-1,3-cyclohexanedione] as the molecule, how does the growth inhibition ([1]; treatment of Lemna) read?
Answer: severely inhibited growth

Question: What about the IC50 [3] of the same molecule?
Answer: 0.045 µM

Question: What about the “inhibition of the HPPD activity” value ([4]; at more than 1 μM sulcotrione (FIG. 4)) of the same molecule?
Answer: Nearly complete inhibition

Question: What about the IC50 ([4]; cell extract of transformed E. coli, pH 7.3, 30° C., 30 min (FIG. 4), read-out: concentration required to cause 50% inhibition of the HPPD activity) of the same molecule?
Answer: 0.1 µM

Question: And the “pigment, phytoene and tyrosine changes” value ([5]; accompanying bleaching)?
Answer: loss of carotenoids and chlorophyll with an increase in phytoene and tyrosine

Question: What about the bleaching [5] of the same molecule?
Answer: strong bleaching

Question: And the Ki [6]?
Answer: 0.0098 µM

Question: And the type of inhibition [6]?
Answer: potent competitive inhibitor

Question: For `N[C@@H](Cc1ccc(O)cc1)C(=O)O` [tyrosine], which “formation of the brown pigment” value [7] is on record?
Answer: increased

B1: Arabidopsis HPPD: 4-hydroxyphenylpyruvate dioxygenase (HPPD) from Arabidopsis thaliana (AtHPPD) SEQ ID No: 1 (protein)
chain: MGHQNAAVSENQNHDDGAASSPGFKLVGFSKFVRKNPKSDKFKVKRFHHIEFWCGDATNVARRFSWGLGMRFSAKSDLSTGNMVHASYLLTSGDLRFLFTAPYSPSLSAGEIKPTTTASIPSFDHGSCRSFFSSHGLGVRAVAIEVEDAESAFSISVANGAIPSSPPIVLNEAVTIAEVKLYGDVVLRYVSYKAEDTEKSEFLPGFERVEDASSFPLDYGIRRLDHAVGNVPELGPALTYVAGFTGFHQFAEFTADDVGTAESGLNSAVLASNDEMVLLPINEPVHGTKRKSQIQTYLEHNEGAGLQHLALMSEDIFRTLREMRKRSSIGGFDFMPSPPPTYYQNLKKRVGDVLSDDQIKECEELGILVDRDDQGTLLQIFTKPLGDDRPTIFIEIIQRVGCMMKDEEGKAYQSGGCGGFGKGNFSELFKSIEEYEKTLEAKQLVG
Question: With B1 as the molecule, how does the HPPD activity ([4]; extract of E. coli transformed with the Arabidopsis HPPD gene, no inhibitor) read?
Answer: 2.7 μmol/mg protein/hr
